In patent US6881421B1 (Bioalliance Pharma S.A., priority 1998, dated 2005):
≈ marks a conversion by molar mass, not a printed value.

How the values were obtained:
[1] = Titration of progesterone/steroid content of nanoparticles by HPLC; format: physicochemical; conditions: for Drug load: average of 3 values; for Increase in content load (number of times): PIBCA/HP CD particles versus PIBCA without HP CD; for Content of combined PIBCA and HP CD particles / Content of PIBCA nanoparticles without HP CD: average of three preparations; for Content of PIBCA nanoparticles without HP CD: reference particles
Description: (§1) The different suspensions of nanoparticles were centrifuged at 82,000 g for 30 to 40 min at 25° C. (Beckman, L5-65 Ultracentrifuge, 70.1 Ti type rotor) and resuspended in 5 ml distilled water. The suspensions were finally freeze-dried (Christ HED Freeze Drier, Germany).
To titrate the progesterone content in the nanoparticles, the freeze-dried products were diluted in acetonitrile of HPLC grade and the solutions analyzed by high performance liquid chromatography (HPLC). The HPLC system consisted of a 510 solvent delivery unit (Waters-Saint-Quentin-en-Yvelines, France), a WISP 712 automatic sampler, a column Nova-Pak C18 4 μm column (250×4.6 mm), a 486 absorbency detector which operated at 245 NM and interfaced with a 746 data module. The flow rate was 1.0 ml/min and the mobile phase made up of water and acetonitrile (40:60) for which the retention time was approximately 12 min. The results were expressed as an average of three titrations.
The different steroids were determined as in Example 6 so that the titration of these different substances was conducted under the same analytical conditions.

[2] = In vitro release of HPβCD from PIBCA/HPβCD nanoparticles; format: physicochemical; conditions: ABB medium, 37° C.; during the first hour
Description: Study of the release of HPBCD was conducted as for progesterone in ABB medium with quantification of the CD content after ultracentrifuging, by complexation with phenolphthalein as described above. The CD concentration at 100% release was approximately 100 μg/ml.

[3] = Titration of cyclodextrin content of nanoparticles (phenolphthalein spectrophotometry); format: physicochemical
Description: as §1
For quantification of HPβCD, the freeze-dried nanoparticles were hydrolyzed with 0.2 M NaOH for 12 hours, the pH adjusted to 7.0 (±0.5) and the HPBCD quantified by spectrophotometric titration of the discoloring of phenolphthalein solutions in the presence of HPβCD. Phenolphthalein formed stable, colorless inclusion complexes with cyclodextrins (CD). Consequently, the color intensity of a phenolphthalein solution in alkaline borate buffer decreased in proportion to the quantity of CD in solution.
Reference solutions were prepared by diluting mother solutions of CD in alkaline borate buffer solution with pH 10.0 containing 2% ethanol solution of 0.006 M phenolphthalein. The reference curves (λ=550 nm) are linear for CD concentrations ranging from 1 to 100 μg/ml. To the samples were added 4 parts buffer solution containing phenolphthalein and they were then tested directly.
The HPβCD was also titrated as in Example 6.

[4] = Solubility of progesterone; format: physicochemical; conditions: polymerization medium, aqueous with cosolvent or surfactant or cyclodextrin; diluted hydrochloric acid (pH 2.0), 1% (w/v) poloxamer 188; read-out: maximum solubility in the polymerization medium
[5] = cited from earlier work
[6] = In vitro release of progesterone from PIBCA/HPβCD nanoparticles; format: physicochemical; conditions: for progesterone released, second slower phase / progesterone released, initial rapid release: ABB pH 8.4, 37° C.; for progesterone released, initial rapid release: first hour; for progesterone released: ABB with 40% PEG 400
Description: A weighed quantity of freeze-dried nanoparticles (containing 1% (w/v) of glucose) was placed in a bottle containing 15 ml of alkaline borate buffer solution (ABB) (pH 8.4) or of ABB containing esterases (25 and 100 IU) or of ABB/poly(ethyleneglycol) 400 (PEG) at 20 and 40% (v/v). The samples were magnetically stirred at 200 r/min and 37° C., and taken at predetermined intervals. The suspensions were centrifuged at 82,000 g for 30 minutes at 20° C., then the progesterone content of the supernatant is determined for all media and the HPβCD content for the PEG media. The progesterone content is determined using HPLC as described above with injection of 100 μl for the samples incubated in ABB media and 20 μl for the PEG media.
All the tests are conducted under conditions such 15 that the active ingredient concentration during the release stage is maintained below 10% saturation.

[7] = PIBCA nanoparticles without HPβCD
[8] = PIBCA/HPBCD nanoparticles (10 mg/ml HPβCD)

Row | Compound | Drug load [1, 7] | Increase in content load (number of times) [1] | Drug load [1, 8] | Content of combined PIBCA and HP CD particles [1] | Content of PIBCA nanoparticles without HP CD [1] | also measured
1 | C#C[C@]1(O)CC[C@H]2[C@@H]3CCC4=Cc5oncc5C[C@]4(C)[C@H]3CC[C@@]21C [Danazol, danazol] | 0.34 mg/g | 32.9 number of times | 11.2 mg/g | 33.19 mmol/g | 1.01 mmol/g | –
2 | CC(O)COC[C@H]1O[C@@H]2O[C@H]3[C@H](O)[C@@H](O)[C@@H](O[C@H]4[C@H](O)[C@@H](O)[C@@H](O[C@H]5[C@H](O)[C@@H](O)[C@@H](O[C@H]6[C@H](O)[C@@H](O)[C@@H](O[C@H]7[C@H](O)[C@@H](O)[C@@H](O[C@H]8[C@H](O)[C@@H](O)[C@@H](O[C@H]1[C@H](O)[C@H]2O)O[C@@H]8COCC(C)O)O[C@@H]7COCC(C)O)O[C@@H]6COCC(C)O)O[C@@H]5COCC(C)O)O[C@@H]4COCC(C)O)O[C@@H]3COCC(C)O (stereo partly drawn) [HPβCD, 2-hydroxypropyl-β-cyclodextrin] | – | – | – | – | – | cyclodextrin released [2]: ~100%; quantity of HPβCD associated with the particles ([3]; equal initial masses of HPβCD and isobutylcyanoacrylate in the polymerization medium): approximately 35%; quantity of HPβCD associated with the particles ([3]; maximum reached with increasing HPβCD (FIG. 3)): about 60 % of particle weight
3 | C[C@]12CCC(=O)C=C1CC[C@@H]1[C@@H]2[C@@H](O)C[C@@]2(C)[C@H]1CC[C@]2(O)C(=O)CO [Hydrocortisone, hydrocortisone] | 2.19 mg/g | 7.0 number of times | 15.3 mg/g | 42.21 mmol/g | 6.04 mmol/g | –
4 | CC(=O)O[C@]1(C(C)=O)CC[C@H]2[C@@H]3C=C(C)C4=CC(=O)CC[C@]4(C)[C@H]3CC[C@@]21C [Megestrolacetate, megestrol acetate] | 0.25 mg/g | 5.6 number of times | 1.4 mg/g | 3.64 mmol/g | 0.65 mmol/g | –
5 | C[C@]12C=CC(=O)C=C1CC[C@@H]1[C@@H]2[C@@H](O)C[C@@]2(C)[C@H]1CC[C@]2(O)C(=O)CO [Prednisolone, prednisolone] | 0.12 mg/g | 129.2 number of times | 15.5 mg/g | 43.00 mmol/g | 0.33 mmol/g | Increase in content load (number of times) ([1]; listed as prednisolone): 129 number of times
6 | CC(=O)[C@H]1CC[C@H]2[C@@H]3CCC4=CC(=O)CC[C@]4(C)[C@H]3CC[C@]12C [Progesterone, progesterone] | 0.79 mg/g | 27.7 number of times | 24.0 mg/g | 69.60 mmol/g | 2.51 mmol/g | solubility [4]: ~60 µg/mL (≈ 191 µM); water-solubility [5]: 10 µg/mL; progesterone released, second slower phase ([6]; 70 nm nanoparticles): ~62%; progesterone released, initial rapid release ([6]; 70 nm nanoparticles): ~34%; progesterone released, second slower phase ([6]; 150 nm nanoparticles): approximately 35%; progesterone released, initial rapid release ([6]; 150 nm nanoparticles): approximately 10%; progesterone released ([6]; first-named formulation (150 nm)): approximately 75%; progesterone released ([6]; second-named formulation (70 nm)): ~82%; quantity of released progesterone ([6]; ABB with esterases (25 and 100 IU), both tested formulations): ~100%; progesterone content ([1]; larger particles (170 nm)): 10.5 µg/mg; progesterone content of particles ([1]; prepared in the presence of HPβCD, highest content (FIG. 5)): 45 μg/mg of particles; active ingredient content ([1]; smallest nanoparticles (70 nm)): 24 µg/mg
7 | CC(=O)S[C@@H]1CC2=CC(=O)CC[C@]2(C)[C@H]2CC[C@@]3(C)[C@@H](CC[C@@]34CCC(=O)O4)[C@H]12 [Spironolactone, spironolactone] | 7.65 mg/g | 6.9 number of times | 53.0 mg/g | 127.23 mmol/g | 18.36 mmol/g | –
8 | C[C@]12CC[C@H]3[C@@H](CCC4=CC(=O)CC[C@@]43C)[C@@H]1CC[C@@H]2O [Testosterone, testosterone] | 2.27 mg/g | 8.6 number of times | 19.5 mg/g | 67.6 mmol/g | 7.87 mmol/g | –
